Here are results for 12 compounds from patent publication US7550495B2 (priority 2004, dated 2009).

Data set [1] can be described thus: Metabolic stability assay in human liver microsomes. It counts as in vitro ADME. The protocol:
(§1) A solution of 500 μl of 100 μM compound in DMSO is incubated with human or rat liver microsomes (843 μl of microsomes of 0.5618 mg/mL in 30 ml 0.1 M KH2PO4 buffer pH7.4) at 37° C. for 10 min in a 96-deep well plate. NADPH (46 μL) at a concentration of 8.33 mg/ml in 100 mM KH2PO4 buffer pH 7.4 is added to start the reaction. The reaction mixtures are transferred to a 384-well plate containing acetonitrile to quench the reaction at time 0, 10, 20, 30 minutes. The 384 well plate is centrifuged for 30 min at 9000 g, at 4° C., from which samples are analyzed by LC/MS (model: XDB Eclipse C18). Three references are analyzed by LC/MS as a positive control. Data are processed following a standard procedure. The metabolic stability of assayed compounds is expressed as μL/min/mg
For orientation: Microsomes from liver hold many membrane-bound enzymes, among them those of drug oxidation.

Data set [2] is described as follows: Assay condition for measuring solubility. The note with it: for solubility at 24 h: thermodynamic from solid, aqueous, sodium phosphate buffer pH 7.4, 24 h, 25° C. It counts as physicochemical. The protocol: A 30 mM DMSO stock is prepared of the sample and then a 25 μL aliquot is added to a 96-well plate and genevac at 40° C. for 4 hours. To the genevac compound add 250 μL of sodium phosphate buffer (pH 7.4) and then mix at 1200 rpm for 24 h using an Eppendorf Thermomixer at 25° C. After mixing solution is transferred to a 96-well Whatman GF/B filter plate and then filtered under vacuum. The supernatant is then injected onto the LC/MS for analysis and quantitation is performed using a 1-point calibration for the compound of interest.

Data set [3] can be described thus: Metabolic stability assay in rat liver microsomes. It counts as in vitro ADME. The note with it: pH 7.4, 37° C., read-out: rCLint. The protocol: as §1
The target in data set [4] is T1, Human CB1 receptor (Homo sapiens, UniProt P21554).
T1 construct: purchased Receptor Biology
T1 sequence (P21554 whole entry): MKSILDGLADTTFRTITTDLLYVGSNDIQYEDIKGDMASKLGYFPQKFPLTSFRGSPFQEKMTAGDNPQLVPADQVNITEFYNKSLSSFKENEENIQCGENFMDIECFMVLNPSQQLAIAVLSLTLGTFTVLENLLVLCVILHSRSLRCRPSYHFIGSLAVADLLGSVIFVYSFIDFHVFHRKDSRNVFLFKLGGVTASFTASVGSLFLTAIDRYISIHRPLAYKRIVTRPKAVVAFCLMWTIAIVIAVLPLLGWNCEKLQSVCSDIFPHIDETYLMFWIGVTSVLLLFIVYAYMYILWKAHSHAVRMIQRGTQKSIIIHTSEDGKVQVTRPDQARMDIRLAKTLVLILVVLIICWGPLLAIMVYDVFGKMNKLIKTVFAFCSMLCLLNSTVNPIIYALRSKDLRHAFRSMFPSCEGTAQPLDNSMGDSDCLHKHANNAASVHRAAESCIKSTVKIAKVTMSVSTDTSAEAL
The data set is described as follows: hCB1 receptor binding (3H-CP55,940 displacement). The note with it: Ki=IC50/(1+[rad]/Kd). On the procedure:
Human CB1 receptor from Receptor Biology (hCB1) or human CB2 receptor from BioSignal (hCB2) membranes are thawed at 37° C., passed 3 times through a 25-gauge blunt-end needle, diluted in the cannabinoid binding buffer (50 mM Tris, 2.5 mM EDTA, 5 mM MgCl2, and 0.5 mg/mL BSA fatty acid free, pH 7.4) and aliquots containing the appropriate amount of protein are distributed in 96-well plates. The IC50 of the compounds of the invention at hCB1 and hCB2 are evaluated from 10-point dose-response curves done with ^3H-CP55,940 at 20000 to 25000 dpm per well (0.17-0.21 nM) in a final volume of 300 μl. The total and non-specific binding are determined in the absence and presence of 0.2 μM of HU210 respectively. The plates are vortexed and incubated for 60 minutes at room temperature, filtered through Unifilters GF/B (presoaked in 0.1% polyethyleneimine) with the Tomtec or Packard harvester using 3 mL of wash buffer (50 mM Tris, 5 mM MgCl2, 0.5 mg BSA pH 7.0). The filters are dried for 1 hour at 55° C. The radioactivity (cpm) is counted in a TopCount (Packard) after adding 65 μl/well of MS-20 scintillation liquid.
Based on the above assays, the dissociation constant (Ki) for a particular compound of the invention towards a particular receptor is determined using the following equation: Ki=IC50/(1+[rad]/Kd), […]

For data set [5], the target named is T1, Human CB1 receptor. The data set is described as follows: hCB1 GTPγS binding. It counts as biochemical. On the procedure:
Human CB1 receptor from Receptor Biology (hCB1) or human CB2 receptor membranes (BioSignal) are thawed at 37° C., passed 3 times through a 25-gauge blunt-end needle and diluted in the GTPγS binding buffer (50 mM Hepes, 20 mM NaOH, 100 mM NaCl, 1 mM EDTA, 5 mM MgCl2, pH 7.4, 0.1% BSA). The EC50 and Emax of the compounds of the invention are evaluated from 10-point dose-response curves done in 300 μl with the appropriate amount of membrane protein and 100000-130000 dpm of GTPg^35S per well (0.11-0.14 nM). The basal and maximal stimulated binding is determined in absence and presence of 1 μM (hCB2) or 10 μM (hCB1) Win 55,212-2 respectively. The membranes are pre-incubated for 5 minutes with 56.25 μM (hCB2) or 112.5 μM (hCB1) GDP prior to distribution in plates (15 μM (hCB2) or 30 μM (hCB1) GDP final). The plates are vortexed and incubated for 60 minutes at room temperature, filtered on Unifilters GF/B (presoaked in water) with the Tomtec or Packard harvester using 3 ml of wash buffer (50 mM Tris, 5 mM MgCl2, 50 mM NaCl, pH 7.0). The filters are dried for 1 hour at 55° C. The radioactivity (cpm) is counted in a TopCount (Packard) after adding 65 μl/well of MS-20 scintillation liquid. […]
A general note: Binding of GTPγS marks nucleotide exchange on a G protein.

Setting [6] is: pH 7.4, 37° C., read-out: hCLint.

Values after ≈ are worked out from the molar mass of the structure shown.

The term solubility denotes the concentration that dissolves in the medium under given conditions. As for `CCCS(=O)(=O)Nc1ccc2c(c1)nc(C(C)(C)C)n2CC1CCC(F)(F)CC1`, the microsomal CLint at 1.6 µM stood at 10.7 µL/min/mg in data set [1] (setting [6]) and 8.04 µL/min/mg in data set [3]. Moreover, the solubility at 24 h in data set [2] is 3.79 µM (≈ 1.62 µg/mL).

Take `CCS(=O)(=O)Nc1ccc2c(c1)nc(C(C)(C)C)n2CC1CCC(F)(F)CC1`: the microsomal CLint at 1.6 µM is 5.76 µL/min/mg in data set [1] (setting [6]) and 11.7 µL/min/mg in data set [3]. In data set [2], this compound displayed a solubility at 24 h of 7.36 µM (≈ 3.04 µg/mL).

On to `CC(C)(C)c1nc2cc(NS(C)(=O)=O)ccc2n1CC1CCC(F)(F)CC1`, for which the microsomal CLint at 1.6 µM in data set [1] (setting [6]) was 7.41 µL/min/mg; in data set [3] it was 23.4 µL/min/mg. The solubility at 24 h in data set [2] came to 4.3 µM (≈ 1.72 µg/mL).

Regarding `CC(C)(C)c1nc2cc(NS(=O)(=O)C3CC3)ccc2n1CC1CCC(F)(F)CC1`, the microsomal CLint at 1.6 µM in data set [1] (setting [6]) was found to be 7.77 µL/min/mg; in data set [3], 10.2 µL/min/mg. This compound also came in with a solubility at 24 h in data set [2] of 5.93 µM (≈ 2.52 µg/mL).

As to `CC(F)(F)c1nc2cc(NS(=O)(=O)C3CC3)ccc2n1CC1CCC(F)(F)CC1`, the microsomal CLint at 1.6 µM in data set [1] (setting [6]) was 5.27 µL/min/mg; in data set [3], less than 4 µL/min/mg. Further, the solubility at 24 h in data set [2] was determined as 51.9 µM (≈ 22.5 µg/mL).

With `CCS(=O)(=O)Nc1ccc2c(c1)nc(C(C)(C)C)n2CC1CCC(F)CC1` (centres unmarked), the microsomal CLint at 1.6 µM in data set [1] (setting [6]) stood at 5.72 µL/min/mg; in data set [3], 62.6 µL/min/mg. In data set [2], this compound returned a solubility at 24 h of 353 µM (≈ 140 µg/mL).

Consider `CC(C)(C)c1nc2cc(NS(=O)(=O)C(C)(C)C)ccc2n1CC1CCC(F)(F)CC1`, for which the figures for the microsomal CLint at 1.6 µM in data set [1] (setting [6]) and in data set [3] were 8.03 µL/min/mg and 15.4 µL/min/mg, respectively. This compound also displayed a solubility at 24 h in data set [2] of 0.61 µM (≈ 0.269 µg/mL).

For the compound `CC(F)(F)c1nc2cc(NS(=O)(=O)C(C)(C)C)ccc2n1CC1CCC(F)(F)CC1`, the microsomal CLint at 1.6 µM was less than 4 µL/min/mg in data set [1] (setting [6]) and 6.87 µL/min/mg in data set [3]. The solubility at 24 h in data set [2] was found to be 0.51 µM (≈ 0.229 µg/mL).

In the case of `CC(C)(C)c1nc2cc(NS(=O)(=O)C3CC3)ccc2n1CC1CCC(F)CC1` (centres unmarked), the microsomal CLint at 1.6 µM in data set [1] (setting [6]) was less than 4 µL/min/mg. For the same compound, the solubility at 24 h in data set [2] came to 233 µM (≈ 95 µg/mL).

On to `CC(C)(C)c1nc2cc(NS(=O)(=O)C(C)(C)C)ccc2n1CC1CCC(F)CC1` (centres unmarked), for which the microsomal CLint at 1.6 µM in data set [1] (setting [6]) was 11.5 µL/min/mg. For the same compound, the solubility at 24 h in data set [2] was 154 µM (≈ 65.3 µg/mL).

In general, Ki refers to the dissociation constant of the complex between target and ligand, obtained from inhibition or displacement. Turning to `CCS(=O)(=O)Nc1ccc2c(c1)nc(C(C)(C)C)n2CC1CCC(F)CC1` (single isomer, unassigned) [Isomer A, N-{2-tert-Butyl-1-[(4-fluorocyclohexyl)methyl]-1H-benzimidazol-5-yl}ethanesulfonamide (isomers)], the “Sol. pH 7.4” value in data set [2] (listed as A) is on record as 64 μM. In data set [4], this compound returned a Ki of 148 nM.

The term EC50 denotes the concentration giving half of the maximal effect. For orientation: Emax means the size of the effect at its maximum, as opposed to the concentration needed. In the case of `CCS(=O)(=O)Nc1ccc2c(c1)nc(C(C)(C)C)n2CC1CCC(F)CC1` (single isomer, unassigned) [Isomer B, N-{2-tert-Butyl-1-[(4-fluorocyclohexyl)methyl]-1H-benzimidazol-5-yl}ethanesulfonamide (isomers)], the EC50 in data set [5] worked out at 4.9 nM. Further, the Emax in data set [5] (maximal stimulation with 10 μM Win 55,212-2) came out at 103%. In data set [1] (pH 7.4, read-out: hClint), the microsomal CLint at 1.6 µM came out at 7.7 µL/min/mg. Besides, the “Sol. pH 7.4” value in data set [2] (listed as B) is recorded as 381 μM. The same compound registered a Ki in data set [4] of 14.8 nM.
